Patent publication US12679843B2, “Pyrrolopyrimidine amines as complement inhibitors” (BioCryst Pharmaceuticals, Inc., priority 2020, dated 2026)

Biological target: Factor D (Homo sapiens, UniProt P00746)
Assay: Factor D esterolytic assay (Z-Lys-SBzl thioester substrate, DTNB, 405 nm)
Format: biochemical
Conditions: substrate Z-Lys-SBzl 1.29 mM, 100 mM HEPES, 500 mM NaCl, pH 7.5, 10% DMSO, tested a minimum of three times
Outline: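 Human Factor D hydrolysis of Z-Lys-SBzl (1.29 mM) monitored at 405 nm via DTNB thiol detection for 600 s, 690 nm background subtracted. Buffer 100 mM HEPES, 500 mM NaCl, pH 7.5, 10% DMSO; substrate added immediately or after room-temperature preincubation. IC50 from percent inhibition of rate, at least three tests.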

Factor D, sequence (P00746 26-253): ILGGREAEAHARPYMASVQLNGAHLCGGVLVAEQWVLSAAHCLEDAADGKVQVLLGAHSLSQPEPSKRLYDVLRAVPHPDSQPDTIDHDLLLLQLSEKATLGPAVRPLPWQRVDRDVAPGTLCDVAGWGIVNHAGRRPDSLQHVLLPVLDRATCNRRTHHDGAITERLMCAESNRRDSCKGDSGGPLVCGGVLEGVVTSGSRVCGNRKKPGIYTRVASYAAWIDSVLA

Row | IC50 [µM] | SMILES
1 | 0.1 to 1 | Cc1nc2c(N)ncnc2n1CC(=O)N1C[C@H](F)C[C@H]1C(=O)NCc1cccc(Cl)c1F [Compound 152d, (2S,4R)-1-(2-(6-amino-8-methyl-9H-purin-9-yl)acetyl)-N-(3-chloro-2-fluorobenzyl)-4-fluoropyrrolidine-2-carboxamide]
2 | > 1 | Nc1ncnc2c1c(C(=O)O)cn2CC(=O)N1C[C@H](F)C[C@H]1C(=O)NCc1cccc(Cl)c1F [Compound 153a, 4-amino-7-(2-((2S,4R)-2-((3-chloro-2-fluorobenzyl)carbamoyl)-4-fluoropyrrolidin-1-yl)-2-oxoethyl)-7H-pyrrolo[2,3-d]pyrimidine-5-carboxylic acid]
3 | 0.1 to 1 | CSc1cn(CC(=O)N2[C@@H]3C[C@@H]3C[C@H]2C(=O)Nc2cccc(Br)n2)c2ncnc(N)c12 [Compound 154e, (1R,3S,5R)-2-(2-(4-amino-5-(methylthio)-7H-pyrrolo[2,3-d]pyrimidin-7-yl)acetyl)-N-(6-bromopyridin-2-yl)-2-azabicyclo[3.1.0]hexane-3-carboxamide]
4 | > 1 | Nc1c(C(=O)O)cnc2c1ccn2CC(=O)N1[C@@H]2C[C@@H]2C[C@H]1C(=O)Nc1cccc(Br)n1 [Compound 155f, 4-amino-1-(2-((1R,3S,5R)-3-((6-bromopyridin-2-yl)carbamoyl)-2-azabicyclo[3.1.0]hexan-2-yl)-2-oxoethyl)-1H-pyrrolo[2,3-b]pyridine-5-carboxylic acid]
5 | 0.1 to 1 | Nc1c(C=O)cnc2c1ccn2CC(=O)N1[C@@H]2C[C@@H]2C[C@H]1C(=O)Nc1cccc(Br)n1 [Compound 156e, (1R,3S,5R)-2-(2-(4-amino-5-formyl-1H-pyrrolo[2,3-b]pyridin-1-yl)acetyl)-N-(6-bromopyridin-2-yl)-2-azabicyclo[3.1.0]hexane-3-carboxamide]
6 | 0.1 to 1 | Nc1c(CO)cnc2c1ccn2CC(=O)N1[C@@H]2C[C@@H]2C[C@H]1C(=O)Nc1cccc(Br)n1 [Compound 157a, (1R,3S,5R)-2-(2-(4-amino-5-(hydroxymethyl)-1H-pyrrolo[2,3-b]pyridin-1-yl)acetyl)-N-(6-bromopyridin-2-yl)-2-azabicyclo[3.1.0]hexane-3-carboxamide]
7 | 0.1 to 1 | Cc1cc2c(N)ncnc2n1CC(=O)N1[C@@H]2C[C@@H]2C[C@H]1C(=O)Nc1cccc(Br)n1 [Compound 158e, (1R,3S,5R)-2-(2-(4-amino-6-methyl-7H-pyrrolo[2,3-d]pyrimidin-7-yl)acetyl)-N-(6-bromopyridin-2-yl)-2-azabicyclo[3.1.0]hexane-3-carboxamide]
8 | < 0.1 | COc1ccc2c(c1)c1c(N)ncnc1n2CC(=O)N1[C@H](C(=O)Nc2cccc(Br)n2)C[C@@]2(C)C[C@@H]12 [Compound 159a, (1R,3S,5R)-2-(2-(4-amino-6-methoxy-9H-pyrimido[4,5-b]indol-9-yl)acetyl)-N-(6-bromopyridin-2-yl)-5-methyl-2-azabicyclo[3.1.0]hexane-3-carboxamide]
9 | < 0.1 | C[C@@]12C[C@@H](C(=O)Nc3cccc(Br)n3)N(C(=O)Cn3c4ccc(Br)cc4c4c(N)ncnc43)[C@@H]1C2 [Compound 160a, (1R,3S,5R)-2-(2-(4-amino-6-bromo-9H-pyrimido[4,5-b]indol-9-yl)acetyl)-N-(6-bromopyridin-2-yl)-5-methyl-2-azabicyclo[3.1.0]hexane-3-carboxamide]
10 | < 0.1 | C[C@@]12C[C@@H](C(=O)Nc3cccc(Br)n3)N(C(=O)Cn3c4ccc(C(=O)O)cc4c4c(N)ncnc43)[C@@H]1C2 [Compound 161a, 4-amino-9-(2-((1R,3S,5R)-3-((6-bromopyridin-2-yl)carbamoyl)-5-methyl-2-azabicyclo[3.1.0]hexan-2-yl)-2-oxoethyl)-9H-pyrimido[4,5-b]indole-6-carboxylic acid]
11 | < 0.1 | Nc1ncnc2c1c1cccnc1n2CC(=O)N1[C@@H]2C[C@@H]2C[C@H]1C(=O)Nc1cccc(Br)n1 [Compound 162g, (1R,3S,5R)-2-(2-(4-amino-9H-pyrido[3′,2′:4,5]pyrrolo[2,3-d]pyrimidin-9-yl)acetyl)-N-(6-bromopyridin-2-yl)-2-azabicyclo[3.1.0]hexane-3-carboxamide]
12 | < 0.1 | Nc1ncnc2c1c1cnccc1n2CC(=O)N1[C@@H]2C[C@@H]2C[C@H]1C(=O)Nc1cccc(Br)n1 [Compound 163g, (1R,3S,5R)-2-(2-(4-amino-9H-pyrido[3′,4′:4,5]pyrrolo[2,3-d]pyrimidin-9-yl)acetyl)-N-(6-bromopyridin-2-yl)-2-azabicyclo[3.1.0]hexane-3-carboxamide]
13 | < 0.1 | C[C@@]12C[C@@H](C(=O)Nc3cccc(Br)n3)N(C(=O)Cn3c4ccc(O)cc4c4c(N)ncnc43)[C@@H]1C2 [Compound 164a, (1R,3S,5R)-2-(2-(4-amino-6-hydroxy-9H-pyrimido[4,5-b]indol-9-yl)acetyl)-N-(6-bromopyridin-2-yl)-5-methyl-2-azabicyclo[3.1.0]hexane-3-carboxamide]
14 | < 0.1 | Nc1ncnc2c1c1cc(CCC(=O)O)ccc1n2CC(=O)N1[C@@H]2C[C@@H]2C[C@H]1C(=O)Nc1cccc(Br)n1 [Compound 165a, 3-(4-amino-9-(2-((1R,3S,5R)-3-((6-bromopyridin-2-yl)carbamoyl)-2-azabicyclo[3.1.0]hexan-2-yl)-2-oxoethyl)-9H-pyrimido[4,5-b]indol-6-yl)propanoic acid]
15 | < 0.1 | Nc1ncnc2c1c1cc(O)ccc1n2CC(=O)N1[C@@H]2C[C@@H]2C[C@H]1C(=O)Nc1cccc(Br)n1 [Compound 166a, (1R,3S,5R)-2-(2-(4-amino-6-hydroxy-9H-pyrimido[4,5-b]indol-9-yl)acetyl)-N-(6-bromopyridin-2-yl)-2-azabicyclo[3.1.0]hexane-3-carboxamide]
16 | < 0.1 | Nc1ncnc2c1c1ccc(O)cc1n2CC(=O)N1[C@@H]2C[C@@H]2C[C@H]1C(=O)Nc1cccc(Br)n1 [Compound 167a, (1R,3S,5R)-2-(2-(4-amino-7-hydroxy-9H-pyrimido[4,5-b]indol-9-yl)acetyl)-N-(6-bromopyridin-2-yl)-2-azabicyclo[3.1.0]hexane-3-carboxamide]
17 | < 0.1 | CC(=O)Nc1ccc2c(c1)c1c(N)ncnc1n2CC(=O)N1[C@@H]2C[C@@H]2C[C@H]1C(=O)Nc1cccc(Br)n1 [Compound 168g, (1R,3S,5R)-2-(2-(6-acetamido-4-amino-9H-pyrimido[4,5-b]indol-9-yl)acetyl)-N-(6-bromopyridin-2-yl)-2-azabicyclo[3.1.0]hexane-3-carboxamide]
18 | < 0.1 | Nc1ncnc2c1c1cc(C(=O)NCC3CC3)ccc1n2CC(=O)N1[C@@H]2C[C@@H]2C[C@H]1C(=O)Nc1cccc(Br)n1 [Compound 169f, 4-amino-9-(2-((1R,3S,5R)-3-((6-bromopyridin-2-yl)carbamoyl)-2-azabicyclo[3.1.0]hexan-2-yl)-2-oxoethyl)-N-(cyclopropylmethyl)-9H-pyrimido[4,5-b]indole-6-carboxamide]
19 | < 0.1 | CC(O)c1ccc2c(c1)c1c(N)ncnc1n2CC(=O)N1[C@@H]2C[C@@H]2C[C@H]1C(=O)Nc1cccc(Br)n1 (stereo partly drawn) [Compound 170c, (1R,3S,5R)-2-(2-(4-amino-6-(1-hydroxyethyl)-9H-pyrimido[4,5-b]indol-9-yl)acetyl)-N-(6-bromopyridin-2-yl)-2-azabicyclo[3.1.0]hexane-3-carboxamide]
20 | < 0.1 | Nc1ncnc2c1c1cc(C(F)(F)F)ccc1n2CC(=O)N1CCS[C@H]1C(=O)Nc1cccc(Br)n1 [Compound 171b, (S)-3-(2-(4-amino-6-(trifluoromethyl)-9H-pyrimido[4,5-b]indol-9-yl)acetyl)-N-(6-bromopyridin-2-yl)thiazolidine-2-carboxamide]
21 | < 0.1 | COc1cccc2c1c1c(N)ncnc1n2CC(=O)N1[C@H](C(=O)Nc2cccc(Br)n2)C[C@@]2(C)C[C@@H]12 [Compound 172a, (1R,3S,5R)-2-(2-(4-amino-5-methoxy-9H-pyrimido[4,5-b]indol-9-yl)acetyl)-N-(6-bromopyridin-2-yl)-5-methyl-2-azabicyclo[3.1.0]hexane-3-carboxamide]
22 | < 0.1 | COc1cccc2c3c(N)ncnc3n(CC(=O)N3[C@H](C(=O)Nc4cccc(Br)n4)C[C@@]4(C)C[C@@H]34)c12 [Compound 173a, (1R,3S,5R)-2-(2-(4-amino-8-methoxy-9H-pyrimido[4,5-b]indol-9-yl)acetyl)-N-(6-bromopyridin-2-yl)-5-methyl-2-azabicyclo[3.1.0]hexane-3-carboxamide]
23 | > 1 | Nc1ncnc2c1c1cccc(C(F)(F)F)c1n2CC(=O)N1[C@@H]2C[C@@H]2C[C@H]1C(=O)Nc1cccc(Br)n1 [Compound 174g, (1R,3S,5R)-2-(2-(4-amino-8-(trifluoromethyl)-9H-pyrimido[4,5-b]indol-9-yl)acetyl)-N-(6-bromopyridin-2-yl)-2-azabicyclo[3.1.0]hexane-3-carboxamide]
24 | > 1 | C[C@@]12C[C@@H](C(=O)Nc3cccc(Br)n3)N(C(=O)Cn3c4ncnc(N)c4c4cccc(C(F)(F)F)c43)[C@@H]1C2 [Compound 175a, (1R,3S,5R)-2-(2-(4-amino-8-(trifluoromethyl)-9H-pyrimido[4,5-b]indol-9-yl)acetyl)-N-(6-bromopyridin-2-yl)-5-methyl-2-azabicyclo[3.1.0]hexane-3-carboxamide]
25 | 0.1 to 1 | Cc1cccc2c1c1c(N)ncnc1n2CC(=O)N1[C@H](C(=O)Nc2cccc(Br)n2)C[C@@]2(C)C[C@@H]12 [Compound 176a, (1R,3S,5R)-2-(2-(4-amino-5-methyl-9H-pyrimido[4,5-b]indol-9-yl)acetyl)-N-(6-bromopyridin-2-yl)-5-methyl-2-azabicyclo[3.1.0]hexane-3-carboxamide]
26 | 0.1 to 1 | N#C[C@H]1C[C@@H](C(=O)Nc2cccc(Br)n2)N(C(=O)Cn2c3ccc(C(F)(F)F)cc3c3c(N)ncnc32)C1 [Compound 177d, (2S,4S)-1-(2-(4-amino-6-(trifluoromethyl)-9H-pyrimido[4,5-b]indol-9-yl)acetyl)-N-(6-bromopyridin-2-yl)-4-cyanopyrrolidine-2-carboxamide]
